One test has as its system A2780/Tax22. As to the kind of experiment: In vitro cytotoxicity, XTT assay. The method, then:
(§1) The vanadate compound pV(phen) was tested for in vitro cytotoxicity in a panel of human tumor cell lines. The cell lines used were a human colon carcinoma cell line, HCT116, and two drug-resistant sublines. The HCT116(VM46) subline was selected for resistance to VM-26 and expresses the multidrug resistant (MDR) phenotype including resistance to lipophilic anticancer drugs such as paclitaxel, VP-16, VM-26, doxorubicin, and vinblastine. This cell line overexpresses P-glycoprotein, a cell surface drug efflux pump, which limits accumulation of anticancer drugs such as the ones mentioned above. […] The compound pV(phen) was also evaluated in the ovarian carcinoma cell line A2780 and a paclitaxel resistant subline A2780-Tax22.
(§2) In the cytotoxicity assays, cells were plated and 24 hr later drugs were added and serially diluted. After 72 hr of continuous drug exposure, the tetrazolium dye XTT was added. A dehydrogenase enzyme in live cells reduces the XTT to a form that absorbs light at 450 nm which can be quantitated spectrophotometrically. The greater absorbance, the greater is the number of live cells. The results are expressed as a IC50 which is a drug concentration required to inhibit cell proliferation (i.e., absorbance at 450 nm) to 50% of that of untreated control cells.
(In general: Tetrazolium dyes change colour on reduction, which living cells bring about.)

The test system of a further test is A2780. As to the kind of experiment: In vitro cytotoxicity, XTT assay. The following applies: Homo sapiens, A2780, 72 h, read-out: IC50 (cytotoxicity). The method, then:
as §1, §2

A further test relates to HCT116(VM)46. As to the kind of experiment: In vitro cytotoxicity, XTT assay. The method, then:
as §1, §2

A further test concerns HCT116(VP)35. As to the kind of experiment: In vitro cytotoxicity, XTT assay. Here is the method: as §1, §2
In a further test the test system is HCT116. As to the kind of experiment: In vitro cytotoxicity, XTT assay. The note with it: Homo sapiens, HCT-116, 72 h, read-out: IC50 (cytotoxicity). The method, then:
as §1, §2

Test [1] deals with calf intestinal alkaline phosphatase. The note with it: reported by Cortizo et al.; cited from earlier work.
For test [2], the system named is Ramos. The following applies: previous studies (Uckun et al. 1992); cited from earlier work.
Another test has as its system Ramos cells. As to the kind of experiment: Anti-phosphotyrosine western blot of cell lysates. Type of test: cell-based, human. The note with it: FIG. 11; whole cell lysates.
The subject of test [3] is Ramos. As to the kind of experiment: Clonogenic assay in methylcellulose. In kind it is cell-based, human. The following applies: doses of 10 and 25 μM. Here is the method: The selective cytotoxicity of BMLOV was examined in clonogenic assays. Cells were grown in methylcellulose media and the number of colonies formed after seven days of treatment with various doses of the drug were determined. The clonogenic assays were performed with six replicates for each treatment as described [F. M. Uckun et al., J. Exp. Med. 163:347-368 (1986); F. M. Uckun & J. A. Ledbetter, Proc. Natl. Acad. Sci. USA 85:8603-8607 (1988)). The data is given plus/minus the standard error of the mean.
For assays of cellular proliferation, cells were grown five days in the presence of the indicated concentrations of BMLOV, pulsed 6 hr with [^3 H]-thymidine (New England Nuclear, Boston, Mass.), and counted in a liquid scintillation counter. Human peripheral blood lymphocytes (PBL) from normal volunteers were isolated from lymphocyte separation medium (Litton Bionetics, Kensington, Md.) by density gradient centrifugation. Monocytes were depleted from PBL by two rounds of plastic absorption for 30 minutes at 37° C. B cells were enriched for by negative selection using complement plus monoclonal antibodies to CD2, CD3, CD4, and CD8 for complement depletion. Clonogenic assays of colony formation in methylcellulose medium were performed as previously described (F. M. Uckun et al. (1992), supra).

The subject of test [4] is Ramos. As to the kind of experiment: Clonogenic assay in methylcellulose. The following applies: Ramos B cells. In kind it is cell-based, human.

Molecules are shown by their SMILES.

A word on the IC50: it is the point on the concentration scale where inhibition reaches its midpoint.

As for `CC(=O)O[C@H]1C(=O)[C@@]2(C)[C@H]([C@H](OC(=O)c3ccccc3)[C@]3(O)C[C@H](OC(=O)[C@H](O)[C@@H](NC(=O)c4ccccc4)c4ccccc4)C(C)=C1C3(C)C)[C@]1(OC(C)=O)CO[C@@H]1C[C@@H]2O` [Paclitaxel, reference compound], the IC50 in the test on A2780/Tax22 (Homo sapiens, A2780, 72 h, read-out: IC50 (cytotoxicity)) is 75 nM; with A2780 it was 4 nM; in the test with HCT116(VM)46 (Homo sapiens, HCT-116/VM46, 72 h, read-out: IC50 (cytotoxicity)), 226 nM; with HCT116(VP)35 (Homo sapiens, HCT-116, 72 h, read-out: IC50 (cytotoxicity)), 2 nM; in the test with HCT116, 3 nM. The “fold resistance relative to parental cell line” value in the test on A2780/Tax22 (vs A2780, 4320 min) amounted to 18 fold; with HCT116(VM)46 (vs HCT116, 4320 min) it was 75 fold; in the test with HCT116(VP)35 (vs HCT116, 4320 min), 0.7 fold.
Take `[Na+].[Na+].[Na+].[O]=[V]([O-])([O-])[O-]` [sodium orthovanadate]: the “concentration strongly inhibiting calf intestinal alkaline phosphatase” value in test [1] was “less than 20 μM”. In addition, the “effect on Ramos cells in clonogenic assays” value in the test on Ramos [2] is given as “only gave slight effects”.
For the compound `CC(=O)/C=C(/C)[O-].CC(=O)/C=C(/C)[O-].[O]=[V+2]` [vanadyl acetylacetonate], in the test with Ramos cells, the “induction of cellular tyrosine phosphorylation by analogs” value (shortened to “induction … by analogs”) was “strongly induced cellular tyrosine phosphorylation”.
`CC(=O)C=C([O-])c1ccccc1.CC(=O)C=C([O-])c1ccccc1.[O]=[V+2]` [vanadyl 1-benzoyl acetonate]: in the test with Ramos cells, the “induction … by analogs” value is on record as “strongly induced cellular tyrosine phosphorylation”.
For `CC(=O)C=C(C)[O-].CC(=O)C=C(C)[O-].[Cu+2]` [cupric acetylacetonate], the “induction … by analogs” value in the test on Ramos cells is “induced tyrosine phosphorylation, but in a different pattern than for the vanadyl compounds”. The “sensitivity in clonogenic assay, in words” value with Ramos [3] is recorded as “sensitive to the compound”. In addition, the Colonies in the test on Ramos [4] (1 μM cupric acetylacetonate) amounted to 5749; in the test on Ramos [4] (5 μM cupric acetylacetonate), 226; with Ramos [4] (10 μM cupric acetylacetonate), 127; in the test on Ramos [4] (25 μM cupric acetylacetonate) it was 31.

Source of the values: US5877210A, “Phosphotyrosine phosphatase inhibitors or phosphotyrosine kinase activators for controlling cellular proliferation” (priority 1995, dated 1999).
